Test results from US9073855B2, “BCL-2 selective apoptosis-inducing agents for the treatment of cancer and immune diseases” (AbbVie Inc., priority 2008, dated 2015).

How the values were obtained:
GST-Bcl-2 = GST-Bcl-2 (Homo sapiens, UniProt P10415); test: TR-FRET binding assay, GST-Bcl-2 with F-Bak peptide probe; conditions: TR-FRET Binding Affinity, GST-Bcl-2, F-Bak peptide probe
Procedure, shortened: (§1)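 Ki was derived with Wang's equation for competitive binding of two ligands. The read-out was time-resolved fluorescence after a 3 h room-temperature incubation, using a Tb-labelled antibody donor and the F-Bak peptide acceptor (excitation 340/35 nm). Test compounds entered as DMSO serial dilutions starting at 50 μM, which was the 2× concentration.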

GST-Bcl-XL = GST-Bcl-XL (Homo sapiens, UniProt Q07817); test: TR-FRET binding assay, GST-Bcl-XL with F-Bak peptide probe; conditions: TR-FRET Binding Affinity, GST-Bcl-XL, F-Bak peptide probe
Procedure, shortened: as §1

FL5.12/Bcl-2 cells = test: FL5.12/Bcl-2 cell viability assay under IL-3 withdrawal (CellTitre Glo); type: cell-based, murine; conditions: Mus musculus, IL-3 withdrawn 48 hrs, then 24 hrs with compound
Procedure, shortened: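 Viability measured by CellTitre Glo after FL5.12/Bcl-2 murine cells, starved of IL-3 for 48 hrs, were treated with compounds for another 24 hrs. Killing reflects inhibition of Bcl-2 sequestration of Bim and Puma.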

Sequence of GST-Bcl-2 (P10415 whole entry): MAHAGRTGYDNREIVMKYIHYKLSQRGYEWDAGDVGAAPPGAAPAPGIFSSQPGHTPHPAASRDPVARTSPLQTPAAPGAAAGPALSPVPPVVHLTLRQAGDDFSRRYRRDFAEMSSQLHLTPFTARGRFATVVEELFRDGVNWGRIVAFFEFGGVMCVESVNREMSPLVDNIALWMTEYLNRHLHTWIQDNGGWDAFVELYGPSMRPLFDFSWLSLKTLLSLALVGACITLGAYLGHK
Sequence of GST-Bcl-XL (Q07817 whole entry): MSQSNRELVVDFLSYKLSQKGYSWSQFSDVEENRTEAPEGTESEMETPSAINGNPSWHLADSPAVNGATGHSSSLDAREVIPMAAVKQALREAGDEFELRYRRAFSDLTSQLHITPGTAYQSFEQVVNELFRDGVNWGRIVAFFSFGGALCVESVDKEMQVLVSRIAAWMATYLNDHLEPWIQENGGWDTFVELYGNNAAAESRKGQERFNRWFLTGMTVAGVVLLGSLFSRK

Row | SMILES | Ki (GST-Bcl-2) [nM] | Ki (GST-Bcl-XL) [nM] | EC50 (FL5.12/Bcl-2 cells) [nM]
1 | C[C@@H](c1ccccc1-c1ccc(Cl)cc1)N1CCN(c2ccc(C(=O)NS(=O)(=O)c3ccc(NCC4CCOCC4)c([N+](=O)[O-])c3)c(Oc3cccc4[nH]ccc34)c2)CC1 [Example 256, 4-{4-[(1S)-1-(4′-chloro-1,1′-biphenyl-2-yl)ethyl]piperazin-1-yl}-2-(1H-indol-4-yloxy)-N-({3-nitro-4-[(tetrahydro-2H-pyran-4-ylmethyl)amino]phenyl}sulfonyl)benzamide] | 0.12 | > 660 | 8.89
2 | CC(C1=C(c2ccc(Cl)cc2)CC(C)(C)CC1)N1CCN(c2ccc(C(=O)NS(=O)(=O)c3ccc(NCCCN4CCOCC4)c([N+](=O)[O-])c3)c(Oc3ccc4[nH]ccc4c3)c2)CC1 (stereo not drawn) [Example 257, 4-(4-{1-[2-(4-chlorophenyl)-4,4-dimethylcyclohex-1-en-1-yl]ethyl}piperazin-1-yl)-2-(1H-indol-5-yloxy)-N-({4-[(3-morpholin-4-ylpropyl)amino]-3-nitrophenyl}sulfonyl)benzamide] | 0.171 | 17.1 | 9.34
3 | CC(C1=C(c2ccc(Cl)cc2)CC(C)(C)CC1)N1CCN(c2ccc(C(=O)NS(=O)(=O)c3ccc(NC4CCN(C5CCOCC5)CC4)c([N+](=O)[O-])c3)c(Oc3ccc4[nH]ccc4c3)c2)CC1 (stereo not drawn) [Example 258, 4-(4-{1-[2-(4-chlorophenyl)-4,4-dimethylcyclohex-1-en-1-yl]ethyl}piperazin-1-yl)-2-(1H-indol-5-yloxy)-N-({3-nitro-4-[(1-tetrahydro-2H-pyran-4-ylpiperidin-4-yl)amino]phenyl}sulfonyl)benzamide] | 0.048 | 4.08 | 9.11
4 | CC1(C)CCC(CN2CCN(c3ccc(C(=O)NS(=O)(=O)c4ccc(NCC5CCCCC5)c([N+](=O)[O-])c4)c(Oc4ccc5[nH]ccc5c4)c3)CC2)=C(c2ccc(Cl)cc2)C1 [Example 259, 4-(4-{[2-(4-chlorophenyl)-4,4-dimethylcyclohex-1-en-1-yl]methyl}piperazin-1-yl)-N-({4-[(cyclohexylmethyl)amino]-3-nitrophenyl}sulfonyl)-2-(1H-indol-5-yloxy)benzamide] | 1.99 | > 660 | > 500
5 | CC1(C)CCC(CN2CCN(c3ccc(C(=O)NS(=O)(=O)c4ccc(NN5CCOCC5)c([N+](=O)[O-])c4)c(Oc4ccc5[nH]ccc5c4)c3)CC2)=C(c2ccc(Cl)cc2)C1 [Example 260, 4-(4-{[2-(4-chlorophenyl)-4,4-dimethylcyclohex-1-en-1-yl]methyl}piperazin-1-yl)-2-(1H-indol-5-yloxy)-N-{[4-(morpholin-4-ylamino)-3-nitrophenyl]sulfonyl}benzamide] | 1.09 | > 660 | 59.4
6 | CC1(C)CCC(CN2CCN(c3ccc(C(=O)NS(=O)(=O)c4ccc(NN5CCOCC5)c([N+](=O)[O-])c4)c(Oc4cccc5[nH]ccc45)c3)CC2)=C(c2ccc(Cl)cc2)C1 [Example 262, 4-(4-{[2-(4-chlorophenyl)-4,4-dimethylcyclohex-1-en-1-yl]methyl}piperazin-1-yl)-2-(1H-indol-4-yloxy)-N-{[4-(morpholin-4-ylamino)-3-nitrophenyl]sulfonyl}benzamide] | 3 | > 660 | 176
7 | CC1(C)CCC(CN2CCN(c3ccc(C(=O)NS(=O)(=O)c4ccc(NC5CCOCC5)c([N+](=O)[O-])c4)c(Oc4ccc5[nH]ccc5c4)c3)CC2)=C(c2ccc(Cl)cc2)C1 [Example 263, 4-(4-{[2-(4-chlorophenyl)-4,4-dimethylcyclohex-1-en-1-yl]methyl}piperazin-1-yl)-2-(1H-indol-5-yloxy)-N-{[3-nitro-4-(tetrahydro-2H-pyran-4-ylamino)phenyl]sulfonyl}benzamide] | 0.316 | > 660 | 28.4
8 | CC1(C)CCC(CN2CCN(c3ccc(C(=O)NS(=O)(=O)c4ccc(NCC5(C)COC5)c([N+](=O)[O-])c4)c(Oc4ccc5[nH]ccc5c4)c3)CC2)=C(c2ccc(Cl)cc2)C1 [Example 264, 4-(4-{[2-(4-chlorophenyl)-4,4-dimethylcyclohex-1-en-1-yl]methyl}piperazin-1-yl)-2-(1H-indol-5-yloxy)-N-[(4-{[(3-methyloxetan-3-yl)methyl]amino}-3-nitrophenyl)sulfonyl]benzamide] | 0.235 | > 660 | 25.7
9 | COC1CCC(Nc2ccc(S(=O)(=O)NC(=O)c3ccc(N4CCN(CC5=C(c6ccc(Cl)cc6)CC(C)(C)CC5)CC4)cc3Oc3ccc4[nH]ccc4c3)cc2[N+](=O)[O-])CC1 (stereo not drawn) [Example 265, 4-(4-{[2-(4-chlorophenyl)-4,4-dimethylcyclohex-1-en-1-yl]methyl}piperazin-1-yl)-2-(1H-indol-5-yloxy)-N-({4-[(4-methoxycyclohexyl)amino]-3-nitrophenyl}sulfonyl)benzamide] | 1.7 | > 660 | 244
10 | CC1(C)CCC(CN2CCN(c3ccc(C(=O)NS(=O)(=O)c4ccc(NCCCN5CCS(=O)(=O)CC5)c([N+](=O)[O-])c4)c(Oc4ccc5[nH]ccc5c4)c3)CC2)=C(c2ccc(Cl)cc2)C1 [Example 266, 4-(4-{[2-(4-chlorophenyl)-4,4-dimethylcyclohex-1-en-1-yl]methyl}piperazin-1-yl)-N-[(4-{[3-(1,1-dioxidothiomorpholin-4-yl)propyl]amino}-3-nitrophenyl)sulfonyl]-2-(1H-indol-5-yloxy)benzamide] | 0.183 | > 660 | 11.5
11 | CC1(C)CCC(CN2CCN(c3ccc(C(=O)NS(=O)(=O)c4ccc(NCCN5CCCCC5=O)c([N+](=O)[O-])c4)c(Oc4ccc5[nH]ccc5c4)c3)CC2)=C(c2ccc(Cl)cc2)C1 [Example 267, 4-(4-{[2-(4-chlorophenyl)-4,4-dimethylcyclohex-1-en-1-yl]methyl}piperazin-1-yl)-2-(1H-indol-5-yloxy)-N-[(3-nitro-4-{[2-(2-oxopiperidin-1-yl)ethyl]amino}phenyl)sulfonyl]benzamide] | 0.454 | > 660 | 56.4
12 | CC1(C)CCC(CN2CCN(c3ccc(C(=O)NS(=O)(=O)c4ccc(NCCN5CCNC5=O)c([N+](=O)[O-])c4)c(Oc4ccc5[nH]ccc5c4)c3)CC2)=C(c2ccc(Cl)cc2)C1 [Example 268, 4-(4-{[2-(4-chlorophenyl)-4,4-dimethylcyclohex-1-en-1-yl]methyl}piperazin-1-yl)-2-(1H-indol-5-yloxy)-N-[(3-nitro-4-{[2-(2-oxoimidazolidin-1-yl)ethyl]amino}phenyl)sulfonyl]benzamide] | 0.092 | 145 | 68.2
13 | CC1(C)CCC(CN2CCN(c3ccc(C(=O)NS(=O)(=O)c4ccc(N5CCOCC5)c([N+](=O)[O-])c4)c(Oc4ccc5[nH]ccc5c4)c3)CC2)=C(c2ccc(Cl)cc2)C1 [Example 270, 4-(4-{[2-(4-chlorophenyl)-4,4-dimethylcyclohex-1-en-1-yl]methyl}piperazin-1-yl)-2-(1H-indol-5-yloxy)-N-[(4-morpholin-4-yl-3-nitrophenyl)sulfonyl]benzamide] | 3.31 | > 660 | 429
14 | COC1CCN(c2ccc(S(=O)(=O)NC(=O)c3ccc(N4CCN(CC5=C(c6ccc(Cl)cc6)CC(C)(C)CC5)CC4)cc3Oc3ccc4[nH]ccc4c3)cc2[N+](=O)[O-])CC1 [Example 271, 4-(4-{[2-(4-chlorophenyl)-4,4-dimethylcyclohex-1-en-1-yl]methyl}piperazin-1-yl)-2-(1H-indol-5-yloxy)-N-{[4-(4-methoxypiperidin-1-yl)-3-nitrophenyl]sulfonyl}benzamide] | 6.16 | > 660 | > 500
15 | O=C(NS(=O)(=O)c1ccc(NCC2CCOCC2)c([N+](=O)[O-])c1)c1ccc(N2CCN(CC3=C(c4ccc(Cl)cc4)CCC(N4CCCC4)C3)CC2)cc1Oc1ccc2[nH]ccc2c1 (stereo not drawn) [Example 272, 4-(4-{[2-(4-chlorophenyl)-5-pyrrolidin-1-ylcyclohex-1-en-1-yl]methyl}piperazin-1-yl)-2-(1H-indol-5-yloxy)-N-({3-nitro-4-[(tetrahydro-2H-pyran-4-ylmethyl)amino]phenyl}sulfonyl)benzamide] | 0.011 | > 660 | 194
16 | CC1(C)CCC(CN2CCN(c3ccc(C(=O)NS(=O)(=O)c4ccc(NCCN5CCNC(=O)C5)c([N+](=O)[O-])c4)c(Oc4ccc5[nH]ccc5c4)c3)CC2)=C(c2ccc(Cl)cc2)C1 [Example 273, 4-(4-{[2-(4-chlorophenyl)-4,4-dimethylcyclohex-1-en-1-yl]methyl}piperazin-1-yl)-2-(1H-indol-5-yloxy)-N-[(3-nitro-4-{[2-(3-oxopiperazin-1-yl)ethyl]amino}phenyl)sulfonyl]benzamide] | 0.076 | 181 | 70
17 | CN(C)CCOc1ccc(-c2ccc(Cl)cc2)c(CN2CCN(c3ccc(C(=O)NS(=O)(=O)c4ccc(NN5CCN(C)CC5)c([N+](=O)[O-])c4)c(Oc4cccc5[nH]ccc45)c3)CC2)c1 [Example 274, 4-[4-({4′-chloro-4-[2-(dimethylamino)ethoxy]-1,1′-biphenyl-2-yl}methyl)piperazin-1-yl]-2-(1H-indol-4-yloxy)-N-({4-[(4-methylpiperazin-1-yl)amino]-3-nitrophenyl}sulfonyl)benzamide] | 0.135 | 32.9 | 155
